Data reported in patent publication US7776899B2, “Methods for treatment of erectile dysfunction” (Repros Therapeutics Inc., priority 1998, dated 2010).
Where a name gives a salt, the structure may show the parent alone.

Legend:
[1] = pH 7.48
Protocol: (§1) A 0.1 N solution of NaOH was used to adjust the pH to the indicated values. These solutions were shaken for about 10 minutes then held at room temperature overnight in order to allow maximum dissolution of drugs in the buffer. […] HPLC was performed using a C18 column having a mobile phase of buffer (5 mM NaH2PO4 and 5 mM octane sulfonic acid, pH 3) in 30% acetonitrile with a flow rate of 1.5 ml/minute. The detection wavelength was 210 nm.

physchem = conditions: thermodynamic from solid
Protocol: as §1

In Solution (solubility in mixture) [1]: 170 µg/mL
solubility (physchem; pH 3.91, aqueous buffer, In Solution (solubility in mixture)): 36800 µg/mL
solubility (physchem; pH 3.91, aqueous buffer, solubility): ~36800 µg/mL
solubility (physchem; pH 4.35, aqueous buffer, In Solution (solubility in mixture)): 7750 µg/mL
solubility (physchem; pH 5.04, aqueous buffer, In Solution (solubility in mixture)): 700 µg/mL
solubility (physchem; pH 7.48, aqueous buffer, In Solution (solubility in mixture)): ~200 µg/mL
solubility (physchem; pH 7.65, aqueous buffer, In Solution (solubility in mixture)): 200 µg/mL
Structure (SMILES): COc1ccc(Cc2nccc3cc(OC)c(OC)cc23)cc1OC [Papaverine, papaverine hydrochloride]
